Here are results for four compounds from patent US5384408A, “Substituted pyrazine and its salts, compositions containing them and their use in medicine” (priority 1993, dated 1995).

“Also recorded” adds a separate entry of the source. Read-outs that look alike come from different tables or passages of the source.

In one experiment the target is T1, M2 (heart) (Cavia porcellus, UniProt H0VRN8).
T1 construct: as measured in the guinea pig heart; from tissue; host or cells: guinea pig heart
T1 sequence (H0VRN8 1-466): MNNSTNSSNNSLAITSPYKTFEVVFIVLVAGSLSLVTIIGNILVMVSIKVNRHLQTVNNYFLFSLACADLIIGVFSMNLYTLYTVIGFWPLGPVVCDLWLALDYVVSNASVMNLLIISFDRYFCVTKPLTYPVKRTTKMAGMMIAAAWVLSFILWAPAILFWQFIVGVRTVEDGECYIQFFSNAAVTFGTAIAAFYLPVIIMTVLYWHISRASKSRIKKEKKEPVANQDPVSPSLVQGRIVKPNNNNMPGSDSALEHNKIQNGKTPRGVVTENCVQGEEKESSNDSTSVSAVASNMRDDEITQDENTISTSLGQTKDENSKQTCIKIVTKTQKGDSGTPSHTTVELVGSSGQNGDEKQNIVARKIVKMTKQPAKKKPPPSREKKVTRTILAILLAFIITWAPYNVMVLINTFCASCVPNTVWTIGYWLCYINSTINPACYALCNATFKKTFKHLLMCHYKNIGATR
As to the kind of experiment: functional selectivity, heart M2 antagonist activity (methods of J. Med. Chem. 1987, 30, 969-975). It is filed as biochemical, guinea pig. An excerpt:
(§1) European Patent Application No. 89200147 (Publication No. 327155) discloses a class of pyrazines, pyridazines or pyrimidines, and salts and prodrugs thereof, substituted on one of the ring carbon atoms thereof with a non-aromatic azacyclic or azabicyclic ring system; and independently substituted on each of the other ring carbon atoms with a substituent of low lipophilicity or a hydrocarbon substituent, which compounds stimulate cholinergic transmission.
(§2) 1. By the methods disclosed in J. Med. Chem. (1987), 30, 969-975 was determined the functional selectivity of compound (I): […]

In another experiment the target is T2, M1 (ganglion) (Rattus norvegicus, UniProt P08482).
T2 construct: as measured in the rat ganglion; from tissue; host or cells: rat ganglion
T2 sequence (P08482 1-460): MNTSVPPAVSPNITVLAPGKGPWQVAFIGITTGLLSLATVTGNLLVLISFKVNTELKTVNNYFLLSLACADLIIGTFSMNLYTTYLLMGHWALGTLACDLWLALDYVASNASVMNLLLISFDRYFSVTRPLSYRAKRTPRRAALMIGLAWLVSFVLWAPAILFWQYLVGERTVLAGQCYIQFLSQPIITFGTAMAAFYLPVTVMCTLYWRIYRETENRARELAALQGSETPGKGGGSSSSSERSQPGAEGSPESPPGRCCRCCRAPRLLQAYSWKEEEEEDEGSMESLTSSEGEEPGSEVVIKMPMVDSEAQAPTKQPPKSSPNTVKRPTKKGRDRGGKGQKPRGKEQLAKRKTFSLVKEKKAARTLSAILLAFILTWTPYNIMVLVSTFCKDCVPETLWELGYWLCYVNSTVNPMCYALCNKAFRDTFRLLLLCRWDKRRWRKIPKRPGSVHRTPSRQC
As to the kind of experiment: functional selectivity, ganglion M1 agonist activity (methods of J. Med. Chem. 1987, 30, 969-975). The class given is biochemical.
Description: as §1, §2

The next experiment addresses T3, M3 (ileum) (Cavia porcellus, UniProt H0W1Z3).
T3 construct: guinea pig heart and guinea pig ileum; from tissue; host or cells: guinea pig ileum
As to the kind of experiment: functional selectivity, ileum M3 antagonist activity (methods of J. Med. Chem. 1987, 30, 969-975). It is filed as biochemical, guinea pig.
Description: as §1, §2

The next experiment has as its system intraocular pressure. As to the kind of experiment: Glaucoma method: intraocular pressure in African Green monkeys. The class given is in vivo. As to the method: Male or female African Green monkeys (2.0-4.5 kg) were fasted following their afternoon feeding on the day prior to the experiment. The monkeys were anaesthetised in their cages with approximately 10 mg/kg i.m. ketamine HCl (Vetalar or Ketaset). Once sedated, the animals were restrained in monkey chairs and brought to the laboratory. One drop of 0.5% proparacaine (Ophthetic) was instilled into each eye. After 30 seconds, intraocular pressure (IOP) determinations were taken in each eye (control or "0" time reading) using a Digilab Modular One Pneuma Tonometer. Both eyes were then flushed with saline. Vehicle or test agent (0.0005-2.0%) was administered (25 μl) into the cul-de-sac of both eyes and the IOP was determined at 0.5 and 1.0 hour and at hourly intervals thereafter for up to 5 hours and compared to the control IOP. For ocular instillation, 0.5% hydroxyethylcellulose (HEC) was employed as the vehicle. Supplemental doses of 10 mg or more/animal i.m. ketamine HCl were given 3-5 minutes prior to IOP determinations. Proparacaine HCl (0.5%) (one drop/eye) was also instilled immediately prior to IOP determinations. Following the final IOP determination, both eyes were flushed liberally with saline and a sterile ophthalmic ointment (Ilotycin, erythromycin, 5 mg/gm) was applied. […] Pupil diameter was measured under standard laboratory lighting conditions using a millimeter ruler. […]

Experiment [1] deals with M3 muscarinic receptor. As to the kind of experiment: M3 muscarinic activity, ileum preparation (method of Freedman et al.). The class given is biochemical, guinea pig. As to conditions: versus reference 6-Cl compound.
For experiment [2], the target named is T4, M3 muscarinic receptor (Cavia porcellus, UniProt H0W1Z3).
T4 construct: involving ileum preparation; from tissue; host or cells: ileum (guinea pig by b7)
T4 sequence (H0W1Z3 1-590): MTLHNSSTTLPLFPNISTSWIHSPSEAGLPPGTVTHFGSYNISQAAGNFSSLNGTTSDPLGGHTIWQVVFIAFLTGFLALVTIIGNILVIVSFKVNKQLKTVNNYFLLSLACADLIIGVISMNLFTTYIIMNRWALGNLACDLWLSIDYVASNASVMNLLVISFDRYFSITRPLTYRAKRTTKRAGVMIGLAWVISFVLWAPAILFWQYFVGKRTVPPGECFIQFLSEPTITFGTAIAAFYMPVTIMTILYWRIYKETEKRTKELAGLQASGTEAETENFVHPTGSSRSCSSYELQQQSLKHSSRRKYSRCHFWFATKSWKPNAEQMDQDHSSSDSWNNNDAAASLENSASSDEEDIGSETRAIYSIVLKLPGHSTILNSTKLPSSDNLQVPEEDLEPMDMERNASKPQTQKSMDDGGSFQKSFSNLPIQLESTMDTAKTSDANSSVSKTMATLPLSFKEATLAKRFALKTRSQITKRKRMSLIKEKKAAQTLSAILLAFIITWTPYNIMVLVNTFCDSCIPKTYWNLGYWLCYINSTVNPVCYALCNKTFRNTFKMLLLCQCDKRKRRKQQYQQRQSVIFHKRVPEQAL
Described as above. As to conditions: for M3 receptor action (in words): ileum assay. It is filed as biochemical, guinea pig.

A further experiment concerns the target T5, M1 muscarinic receptor (Rattus norvegicus, UniProt P08482).
T5 construct: as measured in the rat ganglion; from tissue
T5 sequence (P08482 1-460): T2 sequence (P08482 1-460)
As to the kind of experiment: M1 muscarinic activity (method of Newberry et al.). It is filed as biochemical.
Description: as §1
The following two compounds: 3(R)-[2-(6-trifluoromethyl) pyrazinyl]-1-azabicyclo[2.2.2]octane (Compound 1), and 3(R)-[2-(6chloro)pyrazinyl]-1-azabicyclo[2.2.2]octane (Compound 2) were tested for muscarinic activity using the method of Newberry, et al. (Br. J. Pharmacol, 1987, pp. 817-876). The specific M1 muscarinic activities of Compound 1 and Compound 2 were determined and the results are as follows: […]

[3] abbreviates: listed as 6-C1 reference compound.

T3 sequence (H0W1Z3 1-590): as above

By EC50 is commonly meant the concentration giving half of the maximal effect. As to `FC(F)(F)c1cncc(C2CN3CCC2CC3)n1` (racemic) [(±) racemate, (±)-3-[2-(6-Trifluoromethylpyrazin)yl]-1-azabicyclo[2.2.2]octane], the Kb on M2 (heart) is 25.1 nM; at M3 (ileum), 79.4 nM. On M1 (ganglion), the EC50 was 500 nM.

`FC(F)(F)c1cncc([C@@H]2CN3CCC2CC3)n1` [(-) base isomer]: the Kb is 100 nM on M2 (heart) (heart, antagonist, read-out: Heart M2 (pA2) (converted)) and 63.1 nM on M3 (ileum) (ileum, antagonist, read-out: Ileum M3 (pA2) (converted)). At M1 (ganglion), the “Ganglion M1 (EC50)” value is reported as “no agonist effect”.

In the case of `FC(F)(F)c1cncc([C@H]2CN3CCC2CC3)n1` [(I): (+) base isomer, (R)-(+)-3-[2-(6-Trifluoromethylpyrazin)yl]-1-azabicyclo[2.2.2]octane], the Kb on M2 (heart), at M3 muscarinic receptor [2] and on M3 (ileum) was 15.8 nM each time. Moreover, the EC50 on M1 (ganglion) and at M1 muscarinic receptor was 200 nM each time. Besides, the “Change in IOP (maximum mm Hg change in intraocular pressure)” value in the experiment on intraocular pressure (0.05%, 25 μl into cul-de-sac of both eyes, up to 5 hours) was -3.5 mm Hg. Moreover, the “intraocular pressure lowering (in words)” value in the experiment with intraocular pressure (glaucoma test) was “positive lowering of intraocular pressure”. Further, in the experiment with M3 muscarinic receptor [1], the “selectivity of action, M1 over M3 (in words)” value is given as “significantly greater selectivity of action”. Further, the figures for the “M3 receptor action (in words)” value on M3 muscarinic receptor [2] (listed as 6-CF3 compound) and at M3 muscarinic receptor [2] (listed as Compound 1) were “not an agonist at the M3 receptor; also recorded: not an agonist of M3 receptors” and “acts as antagonist on M3 receptors”, respectively. Further, the “M1 muscarinic activity (in words)” value was “retains M 1 muscarinic agonist activity comparable to that of the reference 6-C1 compound” on M1 muscarinic receptor (listed as 6-CF3 compound) and “possess M1 muscarinic activity” at M1 muscarinic receptor (listed as Compound 1).

For the compound `Clc1cncc([C@H]2CN3CCC2CC3)n1` [Compound 2, 3(R)-[2-(6chloro)pyrazinyl]-1-azabicyclo[2.2.2]octane, reference compound], a half-maximal response on M3 muscarinic receptor [2] (EC50) required 30 nM. For the same compound, the “M3 receptor action (in words)” value is “M3 receptor agonist” at M3 muscarinic receptor [2] and “agonist on M3 receptors” on M3 muscarinic receptor [2] (setting [3]). The “M3 muscarinic activity pA2” value at M3 muscarinic receptor [2] (ileum preparation, antagonist) is listed as “no measurable pA2 data”. Besides, the “M1 muscarinic activity (in words)” value at M1 muscarinic receptor is recorded as “possess M1 muscarinic activity”; on M1 muscarinic receptor (setting [3]), “agonist on M1 receptors”.
